According to US9994644B2, “mAB 2 anti-Met antibody” (Agency for Science, Technology and Research, priority 2013, dated 2018):
Each block holds one molecule with its values, some of them ahead of it.

Key:
c-Met [1] = target: c-Met (Homo sapiens, UniProt P08581); settings: background statement; cited from earlier work
c-Met [2] = settings: background statement; cited from earlier work
HaCaT cells = assay: Cell scatter assay; type: cell-based; settings: 10 ng/mL HGF, controls
Method: Cell scattering is one of the biological hallmarks of c-Met activation. Agonist bivalent monoclonal antibodies targeting c-Met would activate c-Met and cause cells to become motile and disperse. Here, we examine the effects of purified anti-α-chain c-Met monoclonal antibodies on cell scatter. HaCaT cells were seeded at low density and allowed to grow until colonies formed. Cells were serum-starved for 24 hrs before incubating with 1 μg/mL monoclonal antibodies for 24 hrs. Cells were then fixed and stained with crystal violet. As a control, cell scatter of HaCaT cells was induced with 10 ng/mL of HGF (FIG. 5). […] Anti-HGF antibody and SU11274 were used as controls. SU11274 is a small molecule inhibitor of c-Met.
100-200 HaCaT cells were seeded in 24-well plates and allowed to grow until small colonies were formed (approximately 7 days). Cells were serum-starved for 24 hrs. Cells were incubated with purified monoclonal antibodies (1 μg/mL) for 24 hrs before rinsing twice in cold PBS and fixing in ice-cold methanol. Cells were then stained in 1% crystal-violet (Sigma-Aldrich) solution. Cell staining was observed using Zeiss Axiovert 25 inverted microscope and pictures were taken using a Canon EOS 1000 D camera.

[3] = system: caspase activation in SNU-5 cells; assay: Caspase-Glo 3/7 caspase activation assay; type: cell-based, human; settings: SNU-5, 72 hrs; mAb 10 μg/mL, SU11274 5 μM
Method: (§1) In order to determine if these antibodies have any physiological effects on tumour cells, 10 μg/mL of mAb was added to SNU-5 cells. […] This indicates SU11274 mode of mechanism is by activation of caspase which in turn result in apoptosis of SNU-5 tumour cells.
(§2) CellTiter-Glo® luminescent cell viability assay and Caspase-Glo® 3/7 Assay (Promega, U.S.A.) were used to determine cell viability and caspase activation respectively. SNU-5 cells (1×10^5 cells) were seeded in each 96-well and treated for 72 hrs before analysis. Cell viability and caspase activation were performed according to manufacturer's protocol. Luminescence was read using the EnVision plate reader (PerkinElmer, U.S.A.).

SNU-5 cells = assay: CellTiter-Glo luminescent cell viability assay; type: cell-based, human; settings: SNU-5, 72 hrs; mAb 10 μg/mL, SU11274 5 μM
Method: as §1, §2

mAb 2 = assay: Alanine scan ELISA and mAb 2 titration against peptides; type: binding, murine; settings: for mAb 2 binding to alanine-substituted peptide: 0.05 μg/mL mAb 2, 1 mM DTT; for Increase mAb 2 binding in ascending order: titration of purified mAb 2 against peptides, 1 = least binding
Method: Variations of peptides O28 and O29, where each amino acid residue was sequentially substituted for an alanine residue, were synthesised. Streptavidin-coated plates (Pierce/Thermo Scientific, #15520) were blocked with 3% BSA/PBS at room temperature. The peptides were dissolved in DMSO and stored according to manufacturer's recommendation. Streptavidin-coated plates were coated with each peptide (5 μg/mL) overnight at room temperature. Wells were washed before hybridoma supernatant or purified monoclonal antibody was added to the each well. HRP-conjugated anti-mouse antibody was added to detect bound monoclonal antibodies. ELISA substrate (Bio-Rad #172-1067) solution was prepared freshly according to the manufacturer's instructions and added to the wells. Colour change was monitored by eye and the reaction was stopped by adding 100 mM sulphuric acid. Absorbance was read at 450 nm in a microplate reader (SPECTRAmax PLUS^384, Molecular Device, U.S.A.). The crystal structure of c-Met extracellular domain, accession number 1 SHY, was obtained from Protein Data Base (PDB). Computer imaging of the epitopes were analysed by PyMol (DeLano Scientific LLC, U.S.A.) software.
To identify residues within peptides O28 and O29 that are crucial for mAb 2-Met interaction, an alanine scan was performed. Variations of peptide O28 and O29, where each amino acid residue was sequentially substituted for an alanine residue, were synthesised (Table 3). Peptides P1 to P16 (with the SEQ II) NO: […]) and P17 to P31. (with the SEQ ID NO: 40 to 56) were derived from the original peptide O28 and O29 respectively. Using the same ELISA-based assay described above, synthesised peptides were added to streptavidin-coated wells and purified mAb 2 was added to each peptide containing well. mAb 2 binding was determined by absorbance reading at […]. […] Peptide O27, peptide O1 and no peptide were used as negative controls.
The substituted amino acid residues in these peptides are thus involved in mAb 2 epitope. […] This is supported by the loss of mAb 2 binding due to the substitution of proline by alanine in peptides P14, P25 and P10. To determine which residues play a more crucial role in mAb 2 binding, mAb 2 was titrated against the peptides (FIG. 12B). […] These residues are not consecutive residues.

Chain of c-Met (Homo sapiens, UniProt P08581) (P08581 25-307): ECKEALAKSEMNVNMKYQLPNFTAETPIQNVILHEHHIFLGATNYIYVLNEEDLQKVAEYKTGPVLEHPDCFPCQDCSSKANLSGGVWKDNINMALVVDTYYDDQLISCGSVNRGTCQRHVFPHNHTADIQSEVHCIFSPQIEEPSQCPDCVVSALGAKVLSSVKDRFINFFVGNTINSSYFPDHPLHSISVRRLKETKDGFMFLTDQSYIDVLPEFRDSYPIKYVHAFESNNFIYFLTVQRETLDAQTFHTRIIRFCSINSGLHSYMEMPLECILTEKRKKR
Chain of c-Met (Homo sapiens, UniProt P08581) (P08581 308-1390): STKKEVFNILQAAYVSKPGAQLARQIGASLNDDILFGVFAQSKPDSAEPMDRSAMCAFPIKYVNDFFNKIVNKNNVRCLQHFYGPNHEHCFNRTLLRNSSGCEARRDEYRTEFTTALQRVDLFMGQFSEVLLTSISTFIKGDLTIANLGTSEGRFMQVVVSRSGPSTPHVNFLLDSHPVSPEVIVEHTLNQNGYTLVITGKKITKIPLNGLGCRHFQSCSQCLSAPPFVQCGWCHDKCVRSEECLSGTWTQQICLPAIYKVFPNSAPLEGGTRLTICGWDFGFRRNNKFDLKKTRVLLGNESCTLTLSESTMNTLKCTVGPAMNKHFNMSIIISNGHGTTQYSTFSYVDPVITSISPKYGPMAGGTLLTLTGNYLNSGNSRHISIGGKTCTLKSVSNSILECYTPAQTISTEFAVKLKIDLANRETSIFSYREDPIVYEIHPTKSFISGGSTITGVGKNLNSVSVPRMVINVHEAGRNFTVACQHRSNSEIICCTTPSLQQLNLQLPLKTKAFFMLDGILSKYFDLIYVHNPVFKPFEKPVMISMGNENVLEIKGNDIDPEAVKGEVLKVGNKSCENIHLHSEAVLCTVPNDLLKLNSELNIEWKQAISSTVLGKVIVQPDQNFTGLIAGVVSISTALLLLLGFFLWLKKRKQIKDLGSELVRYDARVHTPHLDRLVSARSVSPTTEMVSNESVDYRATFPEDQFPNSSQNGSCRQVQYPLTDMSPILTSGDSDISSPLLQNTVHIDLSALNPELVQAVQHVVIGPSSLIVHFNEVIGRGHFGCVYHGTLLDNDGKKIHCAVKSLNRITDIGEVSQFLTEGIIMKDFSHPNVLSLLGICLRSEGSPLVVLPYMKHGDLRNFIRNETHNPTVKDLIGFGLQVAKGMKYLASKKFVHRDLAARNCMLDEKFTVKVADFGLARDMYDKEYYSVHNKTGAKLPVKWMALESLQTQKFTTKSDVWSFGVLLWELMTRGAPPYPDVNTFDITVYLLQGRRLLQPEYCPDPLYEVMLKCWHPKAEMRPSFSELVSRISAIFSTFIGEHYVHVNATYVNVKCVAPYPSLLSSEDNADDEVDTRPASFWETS

Molecule: COc1cc2c(Oc3ccc(-c4cnc(Cc5ccccc5)n(C)c4=O)cc3F)ccnc2cc1OCCCN1CCOCC1 [AM7]
inhibition of c-Met activation (c-Met [1]): extremely successful

Molecule: Cc1[nH]c(/C=C2\C(=O)Nc3ccc(S(=O)(=O)Cc4c(Cl)cccc4Cl)cc32)c(C)c1C(=O)N1CCC[C@@H]1CN1CCCC1 [PHA-665752]
inhibition of c-Met activation (c-Met [1]): extremely successful

Molecule: Cc1[nH]c(/C=C2\C(=O)Nc3ccc(S(=O)(=O)N(C)c4cccc(Cl)c4)cc32)c(C)c1C(=O)N1CCN(C)CC1 [SU11274]
activity against specific c-Met mutations (c-Met [2]): ineffective
inhibition of c-Met activation (c-Met [1]): extremely successful
HGF-induced cell scatter (HaCaT cells): remained circular
caspase activation [3]: high caspase activation
cell viability (SNU-5 cells): significant reduction

Molecule: AIFSPQIEEPSQCPD [P1, alanine-substituted variant of peptide O28]
mAb 2 binding to alanine-substituted peptide (mAb 2): failed to bind

Molecule: CIFSPQAEEPSQCPD [P7, alanine-substituted variant of peptide O28]
mAb 2 binding to alanine-substituted peptide (mAb 2): failed to bind
Increase mAb 2 binding in ascending order (mAb 2): 8

Molecule: CIFSPQIEEPSQCPD [O28, pepscan peptide of human c-Met α-chain]
Increase mAb 2 binding in ascending order (mAb 2): 11

Molecule: QIEEPSQCPDCVVSA [O29, pepscan peptide of human c-Met α-chain]
Increase mAb 2 binding in ascending order (mAb 2): 11

B1: MetMab: monovalent chimeric antibody targeted against c-Met (antibody, chains of the INN, looked up, V domains shown)
VH: EVQLVESGGGLVQPGGSLRLSCAASGYTFTSYWLHWVRQAPGKGLEWVGMIDPSNSDTRFNPNFKDRFTISADTSKNTAYLQMNSLRAEDTAVYYCATYRSYVTPLDYWGQGTLVTVSS
VL: DIQMTQSPSSLSASVGDRVTITCKSSQSLLYTSSQKNYLAWYQQKPGKAPKLLIYWASTRESGVPSRFSGSGSGTDFTLTISSLQPEDFATYYCQQYYAYPWTFGQGTKVEIK
modifications: one-armed monovalent
notes: monovalent chimeric antibody targeted against c-Met
agonist/antagonist activity towards c-Met (c-Met [1]): antagonist

The remaining lines, values ahead:

mAb 2 binding to alanine-substituted peptide (mAb 2): failed to bind
Increase mAb 2 binding in ascending order (mAb 2): 5
Molecule: AIEEPSQCPDCVVSA [P17, alanine-substituted variant of peptide O29]

mAb 2 binding to alanine-substituted peptide (mAb 2): failed to bind
Molecule: CIFSPQIAEPSQCPD [P8, alanine-substituted variant of peptide O28]

mAb 2 binding to alanine-substituted peptide (mAb 2): failed to bind
Increase mAb 2 binding in ascending order (mAb 2): 4
Molecule: CIFSPQIEAPSQCPD [P9, alanine-substituted variant of peptide O28]

mAb 2 binding to alanine-substituted peptide (mAb 2): failed to bind
Increase mAb 2 binding in ascending order (mAb 2): 7
Molecule: CIFSPQIEEASQCPD [P10, alanine-substituted variant of peptide O28]

mAb 2 binding to alanine-substituted peptide (mAb 2): failed to bind
Molecule: CIFSPQIEEPSQCAD [P14, alanine-substituted variant of peptide O28]

mAb 2 binding to alanine-substituted peptide (mAb 2): failed to bind
Increase mAb 2 binding in ascending order (mAb 2): 10
Molecule: CIFSPQIEEPSQCPA [P15, alanine-substituted variant of peptide O28]

mAb 2 binding to alanine-substituted peptide (mAb 2): failed to bind
Increase mAb 2 binding in ascending order (mAb 2): 6
Molecule: QIAEPSQCPDCVVSA [P19, alanine-substituted variant of peptide O29]

mAb 2 binding to alanine-substituted peptide (mAb 2): failed to bind
Increase mAb 2 binding in ascending order (mAb 2): 9
Molecule: QIEAPSQCPDCVVSA [P20, alanine-substituted variant of peptide O29]

mAb 2 binding to alanine-substituted peptide (mAb 2): failed to bind
Increase mAb 2 binding in ascending order (mAb 2): 3
Molecule: QIEEPSQCADCVVSA [P25, alanine-substituted variant of peptide O29]
